Laboratory results from US20020183300A1, “Zinc ionophores as anti-stress agents” (priority 2001, published 2002).

Tests used:
[1] = test system: cultured HUVEC, isolated cardiac myocytes, cultured cerebellar neurons; test: Zinc ionophore screening with Fura-2 loaded cells (fluorescence ratio 340/380 nm); type: cell-based, human; rabbit; mouse; settings: for ionophore activity compared across cell types: HUVEC, cardiac myocytes, cerebellar neurons; for zinc ionophore activity (slope of Fura-2 fluorescence intensity ratio): zinc-complexed holo-ionophore, 1 μM in superfusion buffer, 37° C.
Description: Human umbilical vein endothelial cells (HUVEC) were purchased from Clonetics (San Diego, Calif.) and passages DeKeyser F. G. et al. (2000) Neuroimmunomodulation 7:182-188; Revilla V. et al. Brain Res. Bull 49:413-418; Troullos E. et al. (1997) Clin. Pharmacol. Ther. 62:74-81 were used for these studies. Cells were cultured on flame-sterilzed glass coverslips in Endothelial Basal Medium (Clonetics) supplemented with 10 ng/ml human recombinant epidermal growth factor, 1.0 ug/ml hydrocortisone, 50 ug/ml gentamicin, 50ng/ml amphotetericin B, 12 ug/ml bovine brain extract and 2% v/v fetal bovine serum (all from Clonetics), in a humidified chamber at 37° C. and 5% CO2. To maintain cell populations, proliferating HUVEC were passaged at 80-90% confluency.
Cardiac myocytes were isolated from the ventricular septum of adult rabbit hearts, following collagenase digestion, in a manner similar to that described previously (Turan, B. et al., (1997) Am. J. Physiol. 272:H2095-H2106). The modification consisted of introducing low concentrations of CaCl2 during the perfusion with collagenase and the dispersion of the myocytes. Hearts were perfused for about 2 min by gravity under a hydrostatic pressure of 1 m, with a nominally Ca^2+-free solution containing (in mM): NaCl, 145; KCl, 5; MgSO4, 1.2; Na2HPO4, 1.8; HEPES, 5; glucose, 10; pH adjusted to 7.4 with NaOH. Forty ml of this perfusate were then supplemented with collagenase (1 mg/ml) and perfusion was continued with recirculation. […] The flow rate was then adjusted to 15 ml/min and 50 μM CaCl2 was added to the collagenase solution. Perfusion with this solution was continued for another 15 to 18 min, followed by a 2 min washout of the enzyme with fresh perfusate containing 100 μM CaCl2 and no collagenase. The hearts were then removed from the apparatus and the ventricular septum isolated and minced. Dissociation of the cells was obtained by gentle agitation of the minced tissue in 50 ml of the same perfusing solution. Following filtration through a 200 μm nylon mesh, the cells were allowed to settle and the supernatant was replaced with a solution containing 2 mM CaCl2. Cells were kept at 37° C. in this pre-oxygenated solution and were studied within 8 hours after isolation, cellular viability was ensured by regularly replacing the incubation solution.
Primary cultures of mouse cerebellar granule neurons were obtained from dissociated cerebella of postnatal day 8 or 9 mice according to the following protocol (Cregan et al., (1999) J. Neurosci. 19:7860-7869, incorporated herein by reference). Brains were removed and placed into separate dishes containing solution A (124 mM NaCl, 5.37 mM KCl, 1 mM NaH2 P04, 1.2 mM MgSO4, 14.5 mM D-(1)-glucose, 25 mM HEPES, 3 mg/ml BSA, pH 7.4) in which the cerebella were dissected, meninges removed, and tissue sliced into small pieces. The tissue was briefly centrifuged and transferred to solution A containing 0.25 mg/ml trypsin, then incubated at 37° C. for 18 min. After the addition of 0.082 mg/ml trypsin inhibitor (Boehringer Mannheim, Indianapolis, Ind.) and 0.25 mg/ml DNase I (Boehringer Mannheim), the tissue was incubated at 25° C. for 2 min. After a brief centrifugation, the resulting pellet was gently titrated in solution A yielding suspension that was further incubated for 10 min at 25° C. in solution A containing 2.7 mM MgSO4 and 0.03 mM CaCl2. After a final centrifugation the pellet was resuspended in EMEM media (Sigma, St. Louis, Mo.) containing 10% dialyzed FBS (Sigma), 25 mM KCl, 2 mM glutamine (Life Technologies BRL, Gaithersburg, Md.), 25 mM glucose, and 0.1 mg/ml gentamycin (Sigma) and filtered through a cell strainer (size 70 μm; Falcon). Cells were plated on glass coverslips coated with poly-D-lysine (Sigma) in Nunc fourwell dishes at a density of 1.5×10^6 cells per milliliter of medium. Cytosine-arabinoside (10 μM; Sigma) was added 24 hr after plating.

NF-κB = NF-κB electrophoretic mobility shift assay on brain nuclear extracts, coronary artery ligation model; type: in vivo, rat; settings: rats subjected to coronary occlusion 45 min, reperfusion 4 h; i.v. boluses at 0, 1, 2 h postreperfusion; ZnP 1.2 μg/kg, ZnDDC 8.3 ng/kg
Description: (§1) Coronary artery ligation model Male Sprague-Dawley rats (250-300 g) were anesthetized, intubated and ventilated. The chest was opened and the coronary artery was ligated. After 45 min, the suture was released and reperfusion was continued for 4 h. Boluses (0.5 ml) of the zinc ionophores ZnP (1.2 μg/kg) and ZnDDC (8.3 ng/kg) were administered intravenously in 4% DMSO in saline at 0, 1, and 2 h postreperfusion. After 4 h of reperfusion the ligature was retied, and Evans blue dye was infused intravenously to demarcate the area at risk. The rats were then killed by exsanguination and the brain was collected for analysis. Sham-surgery rats were treated in an identical manner but without tying the ligature around the coronary artery.
(§2) Brain samples were homogenized on ice using six slow strokes of a Teflon pestle homogenizer at 1000 rpm in 8 volumes of buffer containing 0.25 M sucrose, 10 mM HEPES, pH 7.6, 25 mM KCl, 1 mM EDTA, 10% glycerol, 0.15 mM spermine, and 0.5 mM spermidine. […] Protein concentrations were determined using the Bio Rad protein assay.
(§3) Double-stranded consensus oligonucleotides for NF-kB and Spl (Promega, Madison, Wis.) were 5 radiolabelled with g[^32P]ATP (Amersham, Arlington Heights, Ill.). […] The intensity of the bands was quantitated with a densitometer and commercially available software (Molecular Analyst, Bio-Rad Laboratories, Hercules, Calif.).

Spl = Spl electrophoretic mobility shift assay on brain nuclear extracts, coronary artery ligation model; type: in vivo, rat; settings: rats subjected to coronary occlusion 45 min, reperfusion 4 h; ZnDDC 8.3 ng/kg i.v. at 0, 1, 2 h postreperfusion
Description: as §1, §2, §3

Structure (SMILES) | zinc-ionophore properties [1] | ionophore activity compared across cell types [1] | zinc ionophore activity (slope of Fura-2 fluorescence intensity ratio) [1] | NF-κB binding activity in the brain (NF-κB) | Spl binding activity in the brain (in words) (Spl)
Oc1c(I)cc(I)c2cccnc12 [5,7-Diiodo-8-hydroxyquinoline] | possess zinc-ionophore properties | comparable in all three cell types tested | 5,7-Diiodo-8-hydroxyquinoline ✓✓ |  | 
Oc1cccc2cccnc12 [8-Hydroxyquinoline] | possess zinc-ionophore properties |  | 8-Hydroxyquinoline, ✓ |  | 
CCN(CC)C(=S)SSC(=S)N(CC)CC [Disulfiram] |  |  | Disulfiram ✓✓ |  | 
COc1ccc2c(c1)c(CC(=O)O)c(C)n2C(=O)c1ccc(Cl)cc1 [Indomethacin] |  |  | Indomethacin ✓ |  | 
S=C(S)N1CCCC1 [Pyrrolidinedithiocarbamate] |  |  | Pyrrolidinedithiocarbamate ✓✓ |  | 
CC1=C(/C=C/C(C)=C/C=C/C(C)=C/CO)C(C)(C)CCC1 [Vitamin A (all-trans-retinol), all-trans-retinol] | possess zinc-ionophore properties |  | Vitamin A (all-trans-retinol) ✓ |  | 
Cc1c(C)c2c(c(C)c1O)CC[C@@](C)(CCC[C@H](C)CCC[C@H](C)CCCC(C)C)O2 [Vitamin E, alpha-tocopherol] | possess zinc-ionophore properties |  |  |  | 
CCN(CC)C(=S)S [ZNDDC, zinc-diethyldithiocarbamate] | possess zinc-ionophore properties | comparable in all three cell types tested | diethyldithiocarbamate ✓✓ | restored normal NF-κB binding activity | restored Spl binding activity to normal
